According to ChEMBL document CHEMBL1201862, “PubChem BioAssay data set” (2004):
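Briefly, cells in 96-well plates were exposed to five compound concentrations for 48 h, and endpoints were estimated by linear interpolation. Abbreviation: GI50, concentration required for 50% inhibition of growth.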 Activity calls are given as the source filed them. No stated cut-off is given here; in the data, active = GI50 up to about 1.1 µM and inactive = higher.

Columns and labels:
Assay in all cases: NCI-60 cell line screen, 48 h
[1] = system: MDA-MB-231
[2] = system: OVCAR-8
[3] = system: OVCAR-4
[4] = system: HT-29
[5] = system: SK-MEL-5
[6] = system: SF-295
[7] = system: UO-31
[8] = system: SK-MEL-28
[9] = system: CCRF-CEM
[10] = system: SF-268
[11] = system: CAKI-1
[12] = system: COLO 205
[13] = system: NCI/ADR-RES
[14] = system: A498
[15] = system: T47D
[16] = system: RPMI-8226
[17] = system: UACC-62
[18] = system: DU-145
[19] = system: HL-60
[20] = system: TK-10

SMILES: COc1cc(/C=C2\CCC/C(=C\c3cc(OC)c(O)c(OC)c3)C2=O)cc(OC)c1O
- GI50 [1]: 2.71 µM (inactive)
- GI50 [2]: 1.98 µM (inactive)
- GI50 [3]: 3.16 µM (inactive)
- GI50 [4]: 12.9 µM (inactive)
- GI50 [5]: 2.28 µM (inactive)
- GI50 [6]: 2.03 µM (inactive)
- GI50 [7]: 1.69 µM (inactive)
- GI50 [8]: 2.69 µM (inactive)
- GI50 [9]: 0.43 µM (active)
- GI50 [10]: 2.61 µM (inactive)
- GI50 [11]: 1.84 µM (inactive)
- GI50 [12]: 9.38 µM (inactive)
- GI50 [13]: 2.19 µM (inactive)
- GI50 [14]: 1.41 µM (inactive)
- GI50 [15]: 2.79 µM (inactive)
- GI50 [16]: 1.55 µM (inactive)
- GI50 [17]: 1.38 µM (inactive)
- GI50 [18]: 2.39 µM (inactive)
- GI50 [19]: 1.72 µM (inactive)
- GI50 [20]: 5.33 µM (inactive)

SMILES: COC(=O)C1Cc2c(C)cccc2C1=O (stereo not given)
- GI50 [1]: > 100 µM (inactive)
- GI50 [2]: > 100 µM (inactive)
- GI50 [3]: > 100 µM (inactive)
- GI50 [4]: > 100 µM (inactive)
- GI50 [5]: > 100 µM (inactive)
- GI50 [6]: > 100 µM (inactive)
- GI50 [7]: > 100 µM (inactive)
- GI50 [8]: > 100 µM (inactive)
- GI50 [9]: 41.3 µM (inactive)
- GI50 [10]: > 100 µM (inactive)
- GI50 [11]: > 100 µM (inactive)
- GI50 [12]: > 100 µM (inactive)
- GI50 [13]: > 100 µM (inactive)
- GI50 [14]: > 100 µM (inactive)
- GI50 [15]: > 100 µM (inactive)
- GI50 [16]: > 100 µM (inactive)
- GI50 [17]: > 100 µM (inactive)
- GI50 [18]: > 100 µM (inactive)
- GI50 [19]: 29.4 µM (inactive)
- GI50 [20]: > 100 µM (inactive)

SMILES: CCCCCC(O)[C@H]1C(=O)C[C@@H](O[Si](C)(C)C(C)(C)C)[C@@H]1/C=C/CCOCc1ccccc1 (stereo not given in full)
- GI50 [1]: 29.2 µM (inactive)
- GI50 [2]: 13.8 µM (inactive)
- GI50 [3]: 12.6 µM (inactive)
- GI50 [4]: 9.59 µM (inactive)
- GI50 [5]: 16.6 µM (inactive)
- GI50 [6]: 2.39 µM (inactive)
- GI50 [7]: 14.5 µM (inactive)
- GI50 [8]: 15.5 µM (inactive)
- GI50 [9]: > 55.5 µM (inactive)
- GI50 [10]: 16.3 µM (inactive)
- GI50 [11]: 8.47 µM (inactive)
- GI50 [12]: 16 µM (inactive)
- GI50 [13]: 12.1 µM (inactive)
- GI50 [14]: 17.8 µM (inactive)
- GI50 [15]: 13.6 µM (inactive)
- GI50 [16]: 17 µM (inactive)
- GI50 [17]: 11.8 µM (inactive)
- GI50 [18]: 20 µM (inactive)
- GI50 [19]: 2.35 µM (inactive)
- GI50 [20]: 15.1 µM (inactive)

SMILES: COc1cc(CNCc2cc(OC)c(OC)c(OC)c2)cc(OC)c1OC
- GI50 [1]: > 10 µM (inactive)
- GI50 [2]: > 10 µM (inactive)
- GI50 [3]: > 10 µM (inactive)
- GI50 [4]: > 10 µM (inactive)
- GI50 [5]: > 10 µM (inactive)
- GI50 [6]: > 10 µM (inactive)
- GI50 [7]: > 10 µM (inactive)
- GI50 [8]: > 10 µM (inactive)
- GI50 [9]: 2.37 µM (inactive)
- GI50 [10]: > 10 µM (inactive)
- GI50 [11]: > 10 µM (inactive)
- GI50 [12]: > 10 µM (inactive)
- GI50 [13]: > 10 µM (inactive)
- GI50 [14]: > 10 µM (inactive)
- GI50 [15]: > 10 µM (inactive)
- GI50 [16]: 9.73 µM (inactive)
- GI50 [17]: > 10 µM (inactive)
- GI50 [18]: > 10 µM (inactive)
- GI50 [19]: > 4.62 µM (inactive)
- GI50 [20]: > 10 µM (inactive)

SMILES: N#CC1(C#N)C(C#N)(C#N)C1(C#N)C(N)=O
- GI50 [1]: > 100 µM (inactive)
- GI50 [2]: > 100 µM (inactive)
- GI50 [3]: > 100 µM (inactive)
- GI50 [4]: > 100 µM (inactive)
- GI50 [5]: > 100 µM (inactive)
- GI50 [6]: > 100 µM (inactive)
- GI50 [7]: > 100 µM (inactive)
- GI50 [8]: > 100 µM (inactive)
- GI50 [9]: > 100 µM (inactive)
- GI50 [10]: > 100 µM (inactive)
- GI50 [11]: > 100 µM (inactive)
- GI50 [12]: > 100 µM (inactive)
- GI50 [13]: > 100 µM (inactive)
- GI50 [14]: > 100 µM (inactive)
- GI50 [15]: > 100 µM (inactive)
- GI50 [16]: > 100 µM (inactive)
- GI50 [17]: > 100 µM (inactive)
- GI50 [18]: > 100 µM (inactive)
- GI50 [19]: > 100 µM (inactive)
- GI50 [20]: > 100 µM (inactive)

SMILES: O=C1c2cccc3cc4ccccc4c(c23)C(=O)N1CCCNCCNCCCN1C(=O)c2cccc3cc4ccccc4c(c23)C1=O
- GI50 [1]: 0.189 µM (active)
- GI50 [2]: 0.0107 µM (active)
- GI50 [3]: 0.129 µM (active)
- GI50 [4]: 0.0104 µM (active)
- GI50 [5]: 0.128 µM (active)
- GI50 [6]: 0.0182 µM (active)
- GI50 [7]: 0.33 µM (active)
- GI50 [8]: 0.239 µM (active)
- GI50 [9]: < 0.01 µM (active)
- GI50 [10]: 0.196 µM (active)
- GI50 [11]: 0.141 µM (active)
- GI50 [12]: 0.0316 µM (active)
- GI50 [13]: 0.314 µM (active)
- GI50 [14]: 0.526 µM (active)
- GI50 [15]: 0.421 µM (active)
- GI50 [16]: < 0.01 µM (active)
- GI50 [17]: 0.0575 µM (active)
- GI50 [18]: 0.475 µM (active)
- GI50 [19]: < 0.0171 µM (active)
- GI50 [20]: 1 µM (active)

SMILES: CC12CC(Br)(Br)C(=O)C3C1CCCC32
- GI50 [1]: 3.24 µM (inactive)
- GI50 [2]: 4.07 µM (inactive)
- GI50 [3]: 4.48 µM (inactive)
- GI50 [4]: 5.47 µM (inactive)
- GI50 [5]: 5.55 µM (inactive)
- GI50 [6]: 15.9 µM (inactive)
- GI50 [7]: 6.05 µM (inactive)
- GI50 [8]: 2.9 µM (inactive)
- GI50 [9]: 1.36 µM (inactive)
- GI50 [10]: 10.2 µM (inactive)
- GI50 [11]: 2.65 µM (inactive)
- GI50 [12]: 2.38 µM (inactive)
- GI50 [13]: 2.51 µM (inactive)
- GI50 [14]: 16.8 µM (inactive)
- GI50 [15]: 2.38 µM (inactive)
- GI50 [16]: 2.84 µM (inactive)
- GI50 [17]: 7.13 µM (inactive)
- GI50 [18]: 12.4 µM (inactive)
- GI50 [19]: 0.767 µM (active)
- GI50 [20]: 6.27 µM (inactive)

SMILES: Cc1nc2[nH]ccn2c(=O)c1CCCl
- GI50 [1]: 38.7 µM (inactive)
- GI50 [2]: 26.7 µM (inactive)
- GI50 [3]: 20.1 µM (inactive)
- GI50 [4]: 33.7 µM (inactive)
- GI50 [5]: 17.1 µM (inactive)
- GI50 [6]: 31.6 µM (inactive)
- GI50 [7]: 33 µM (inactive)
- GI50 [8]: 30.1 µM (inactive)
- GI50 [9]: 18 µM (inactive)
- GI50 [10]: 36.4 µM (inactive)
- GI50 [11]: > 10 µM (inactive)
- GI50 [12]: 38.7 µM (inactive)
- GI50 [13]: 26.5 µM (inactive)
- GI50 [14]: 19 µM (inactive)
- GI50 [15]: 91 µM (inactive)
- GI50 [16]: 28 µM (inactive)
- GI50 [17]: 24.8 µM (inactive)
- GI50 [18]: 23.6 µM (inactive)
- GI50 [19]: 25.4 µM (inactive)
- GI50 [20]: 31 µM (inactive)

SMILES: CCOC(C/N=c1/nc(N(C)C)ss1)OCC
- GI50 [1]: 15.5 µM (inactive)
- GI50 [2]: 28.1 µM (inactive)
- GI50 [3]: 16.6 µM (inactive)
- GI50 [4]: 0.135 µM (active)
- GI50 [5]: 0.832 µM (active)
- GI50 [6]: 22.2 µM (inactive)
- GI50 [7]: 43.5 µM (inactive)
- GI50 [8]: 21.5 µM (inactive)
- GI50 [9]: 0.208 µM (active)
- GI50 [10]: 30.1 µM (inactive)
- GI50 [11]: 22.6 µM (inactive)
- GI50 [12]: 0.986 µM (active)
- GI50 [13]: > 100 µM (inactive)
- GI50 [14]: > 82.8 µM (inactive)
- GI50 [15]: 23.4 µM (inactive)
- GI50 [16]: 1.16 µM (inactive)
- GI50 [17]: 1.17 µM (inactive)
- GI50 [18]: > 71.1 µM (inactive)
- GI50 [19]: 1.31 µM (inactive)
- GI50 [20]: 33.3 µM (inactive)

SMILES: C[C@@]12[C@H]3CC[C@@H]1[C@H](O)C(=O)N2CC3
- GI50 [1]: > 100 µM (inactive)
- GI50 [2]: > 100 µM (inactive)
- GI50 [3]: > 100 µM (inactive)
- GI50 [4]: > 100 µM (inactive)
- GI50 [5]: > 100 µM (inactive)
- GI50 [6]: > 100 µM (inactive)
- GI50 [7]: > 100 µM (inactive)
- GI50 [8]: > 100 µM (inactive)
- GI50 [9]: > 100 µM (inactive)
- GI50 [10]: > 100 µM (inactive)
- GI50 [11]: > 100 µM (inactive)
- GI50 [12]: > 100 µM (inactive)
- GI50 [13]: > 100 µM (inactive)
- GI50 [14]: > 100 µM (inactive)
- GI50 [15]: > 100 µM (inactive)
- GI50 [16]: > 100 µM (inactive)
- GI50 [17]: > 100 µM (inactive)
- GI50 [18]: > 100 µM (inactive)
- GI50 [19]: > 100 µM (inactive)
- GI50 [20]: > 100 µM (inactive)
